Bridge positions count the residues as written; N and C are the ends. Ends that are not written are not given here. Peptide text beside a SMILES is read from it.
Tested on: calcium concentration in the serum
Experiment: Test 1: reduction of calcium level in serum after tail vein administration to rats
Assay type: in vivo, rats of the Wistar strain
Conditions: 1 ml/kg tail vein, female Wistar rats
Description: Six-weeks-old female rats of the Wistar strain (each group consisting of 4 rats) were used as the test animal, and the peptides of the present invention obtained in the examples given hereinafter were tested at concentrations adjusted with a 1% aqueous solution of sodium acetate (pH 4,0) to which 0.1% bovine serum albumin (BSA) was added. The solution was adjusted to a concentration of 166 μg/ml 830 ng/ml or 83 ng/ml and administered with the tail vein in an amount of 1 ml/kg. The back of the rat was fixed and blood was collected just before the administration, and at predetermined intervals after the administration, from the neck vein. The amount of blood collected each time was 0.3 ml. The sampled blood was subjected to centrifugal separation at 3500 rpm for 20 minutes to separate serum and the calcium content in the separated serum was measured by TBA-380 (supplied by Toshiba) using a Wako calcium-measuring kit (o-cpc method), and the ratio of reduction of the calcium concentration in the serum was determined.

[1] = concentration 83 ng/ml, 0 hour (just before administration)
[2] = concentration 83 ng/ml, 2 hours
[3] = concentration 83 ng/ml, 4 hours
[4] = concentration 83 ng/ml, 6 hours
[5] = concentration 830 ng/ml, 0 hour (just before administration)
[6] = concentration 830 ng/ml, 1 hour
[7] = concentration 830 ng/ml, 2 hours
[8] = concentration 830 ng/ml, 4 hours
[9] = concentration 830 ng/ml, 6 hours

Compound | Serum calcium level as percent of pre-dose baseline [1] [%] | Serum calcium level as percent of pre-dose baseline (concentration 83 ng/ml, 1 hour) [%] | Serum calcium level as percent of pre-dose baseline [2] [%] | Serum calcium level as percent of pre-dose baseline [3] [%] | Serum calcium level as percent of pre-dose baseline [4] [%] | Serum calcium level as percent of pre-dose baseline [5] [%] | Serum calcium level as percent of pre-dose baseline [6] [%] | Serum calcium level as percent of pre-dose baseline [7] [%] | Serum calcium level as percent of pre-dose baseline [8] [%] | Serum calcium level as percent of pre-dose baseline [9] [%] | Serum calcium level as percent of pre-dose baseline (concentration 166 ng/ml, 0 hour (just before administration)) [%] | Serum calcium level as percent of pre-dose baseline (concentration 166 ng/ml, 1 hour) [%] | Serum calcium level as percent of pre-dose baseline (concentration 166 ng/ml, 2 hours) [%] | Serum calcium level as percent of pre-dose baseline (concentration 166 ng/ml, 4 hours) [%] | Serum calcium level as percent of pre-dose baseline (concentration 166 ng/ml, 6 hours) [%]
CC[C@H](C)[C@H](NC(=O)[C@H](C)NC(=O)[C@@H](NC(=O)[C@H](CCC(N)=O)NC(=O)[C@@H]1CCCN1C(=O)[C@H](Cc1ccc(O)cc1)NC(=O)[C@@H](NC(=O)[C@H](CCC(N)=O)NC(=O)[C@H](CC(C)C)NC(=O)[C@H](CCCCN)NC(=O)[C@H](Cc1c[nH]cn1)NC(=O)[C@H](CC(C)C)NC(=O)[C@H](CCC(=O)O)NC(=O)[C@H](CCC(N)=O)NC(=O)[C@H](CO)NC(=O)[C@H](CC(C)C)NC(=O)[C@H](CCCCN)NC(=O)CNC(=O)[C@H](CC(C)C)NC(=O)[C@H](CC(C)C)NC(=O)[C@@H]1CSSC[C@H](N)C(=O)NCC(=O)N[C@@H](CC(N)=O)C(=O)N[C@@H](CC(C)C)C(=O)N[C@@H](CO)C(=O)N[C@@H]([C@@H](C)O)C(=O)N1)[C@@H](C)O)[C@@H](C)O)C(=O)NCC(=O)N[C@H](C(=O)NCC(=O)N[C@@H](C)C(=O)N1CCC[C@H]1C(N)=O)C(C)C [Peptide No. 13] (H-CGNLSTCLLGKLSQELHKLQTYPQTAIGVGAP-NH2; disulfide 1-7) | 100.0 | 68.9 | 70.5 | 84.4 | 86.8 | 100.0 | 71.3 | 62.7 | 58.3 | 61.8 |  |  |  |  | 
CC[C@H](C)[C@H](NC(=O)[C@H](C)NC(=O)[C@@H](NC(=O)[C@H](CCC(N)=O)NC(=O)[C@@H]1CCCN1C(=O)[C@H](Cc1ccc(O)cc1)NC(=O)[C@@H](NC(=O)[C@H](CCC(N)=O)NC(=O)[C@H](CC(C)C)NC(=O)[C@H](CCCCN)NC(=O)[C@H](Cc1c[nH]cn1)NC(=O)[C@H](CC(C)C)NC(=O)[C@H](CCC(=O)O)NC(=O)[C@H](CCC(N)=O)NC(=O)[C@H](CO)NC(=O)[C@H](CC(C)C)NC(=O)[C@H](CCCCN)NC(=O)CNC(=O)[C@H](CC(C)C)NC(=O)[C@H](CCSC)NC(=O)[C@@H]1CC(=O)NCCCC[C@H](N)C(=O)N[C@@H](CC(N)=O)C(=O)N[C@@H](CC(C)C)C(=O)N[C@@H](CO)C(=O)N[C@@H]([C@@H](C)O)C(=O)N1)[C@@H](C)O)[C@@H](C)O)C(=O)NCC(=O)N[C@H](C(=O)NCC(=O)N[C@@H](C)C(=O)N1CCC[C@H]1C(N)=O)C(C)C [Peptide No. 27] (H-KNLSTDMLGKLSQELHKLQTYPQTAIGVGAP-NH2; lactam 1-6) | 100.0 | 93.5 | 94.3 | 86.4 | 82.7 | 100.0 | 79.5 | 94.1 | 87.0 | 82.9 |  |  |  |  | 
CC[C@H](C)[C@H](NC(=O)[C@H](C)NC(=O)[C@@H](NC(=O)[C@H](CCC(N)=O)NC(=O)[C@@H]1CCCN1C(=O)[C@H](Cc1ccc(O)cc1)NC(=O)[C@@H](NC(=O)[C@H](CCC(N)=O)NC(=O)[C@H](CC(C)C)NC(=O)[C@H](CCCCN)NC(=O)[C@H](Cc1c[nH]cn1)NC(=O)[C@H](CC(C)C)NC(=O)[C@H](CCC(=O)O)NC(=O)[C@H](CCC(N)=O)NC(=O)[C@H](CO)NC(=O)[C@H](CC(C)C)NC(=O)[C@H](CCCCN)NC(=O)CNC(=O)[C@H](CC(C)C)NC(=O)[C@H](C)NC(=O)[C@@H]1CSSC[C@H](N)C(=O)NCC(=O)N[C@@H](CC(N)=O)C(=O)N[C@@H](CC(C)C)C(=O)N[C@@H](CO)C(=O)N[C@@H]([C@@H](C)O)C(=O)N1)[C@@H](C)O)[C@@H](C)O)C(=O)NCC(=O)N[C@H](C(=O)NCC(=O)N[C@@H](C)C(=O)N1CCC[C@H]1C(N)=O)C(C)C [Peptide No. 10] (H-CGNLSTCALGKLSQELHKLQTYPQTAIGVGAP-NH2; disulfide 1-7) | 100.0 | 68.7 | 77.9 | 90.6 | 81.6 | 100.0 | 70.2 | 65.4 | 76.1 | 84.2 |  |  |  |  | 
Peptide No. 21: novel calcitonin-derivative peptide, aminosuberic acid (carba) ring, Met8, SEQ ID NO:21 (XGNLSTAMLGKLSQELHKLQTYPQTAIGVGAP; aminosuberic acid carba ring) | 100.0 | 78.4 | 71.7 | 62.6 | 67.1 | 100.0 | 78.4 | 71.7 | 62.6 | 67.1 |  |  |  |  | 
AGNLSTAMLGKLSQELHKQTYPQTAIGVGAP-NH2 [Peptide No. 15] |  |  |  |  |  |  |  |  |  |  | 100.0 | 75.5 | 67.5 | 80.6 | 75.3

— patent US6127519A, “Calcitonin derivatives” (Tsumura & Co., priority 1990, dated 2000)
